# US10307418B2, “Azole pharmaceutical formulations for parenteral administration and methods for preparing and using the same as treatment of diseases sensitive to azole compounds” (Platform Brightworks Two, Ltd., priority 2010, dated 2019)
# Where two headings read alike, the source gives them in different places.
# Tests used:
# [1] = Stability of ITZA/POSA in solvent vehicles (HPLC); format: physicochemical
# Method: The ITZA in solvent H3 was incubated in sealed tubes. […] For both short-term and long-term stability studies, triplicate samples at various time points were analyzed quantitatively by HPLC after appropriate dilutions. In the next step the stability of ITZA (at approximately 4 mg/mL) in a preferred composite solvent at a clinically relevant stock concentration by itself, and after dilution with a similar volume of a clinically acceptable infusion fluid, was determined at room temperature. ITZA was dissolved at a final stock concentration of 2-6 mg/mL in benzyl alcohol with acidified EtOH/PEG-400 (prototype ITZA stock solvent vehicle) and incubated at RT and at 40° C. The resulting ITZA concentrations were measured by HPLC in samples taken immediately after solubilization, then hourly for 8 hours, and then at gradually increasing time intervals for up to several days (weeks), depending on the initial rate of solubilization/degradation in the respective solvent system.
# [2] = test system: Aspergillus fumigatus (Clinical Lab isolate); assay: Mold susceptibility test, MIC; format: cell-based; details: tested range 75 μg/mL to 0.07 μg/mL, read out at 48 hrs
# Method: Two hyaline molds were tested with a standard read out at 48 hrs:
# Tested drug range: 75 μg/mL to 0.07 μg/mL
# Briefly, susceptibility tests were set-up using a standardized methodology (CLSI […] standard). Drugs were diluted into RPMI-Mops medium (Yeast One Broth (Sensititer, product Y3462, Trek Diagnostic Systems, Cleveland, Ohio) Sensititer Lot number 151416SA-expiration date 2011-01). Two different strains of yeast were tested, the standardized evaluation/read out was performed at 24 hours after the start of each culture. The tests were repeated twice and all MIC (minimum inhibitory concentration) values are reported as an average of the three experiments.
# [3] = Maximum solubility of ITZA and azole analogues in solvents (HPLC); format: physicochemical; details: for solubility thermodynamic at 1 h: within 1 hour at RT, read-out: Maximum equilibrium solubility
# Method: ITZA and its analogues were dissolved in various solvents incubated at 37° C. for 30 minutes, cooled down to room temperature, centrifuged at 14,000 rpm for 1 min. The supernatant was analyzed using HPLC to determine the maximum solubility of ITZA and its azole analogues.
# In a first step the maximum ITZA solubility in various single solvents was determined. To this end, ITZA and its analogs were dissolved in various solvents, incubated at 37° C. for 30 minutes, cooled down to room temperature, centrifuged at 14,000 rpm for 1 min. The supernatant was analyzed using HPLC to determine the maximum solubility of the respective agent.
# The solubility of ITZA was determined in several individual vehicles. Briefly, a known amount of ITZA drug, formulated as a powder (Sigma Inc., St Louis, Mo.), was equilibrated in the respective solvent at RT over 1-4 hours. An aliquot was removed, filtered, and prepared for HPLC to determine maximum solubility at room temperature. Based on the ITZA solubility in each vehicle, different solvents were mixed according to the cosolvency principle in an attempt to arrive at an enhanced stable solubility. […] The stock formulation was then diluted with a final diluent, i.e. NS or D5W or DlOW, to yield a stable use-formulation. The desired range of the final use-formulation was between 1 and 5 mg/mL, as it would result in a final volume that could be safely and conveniently infused intravascularly.
# An excess of ITZA as a powder was added to a multitude of chemical solvents (Table 1) at RT. Each mixture was intermittently vortexed, placed in a dark environment and checked visually for up to 4 hours for evidence of solubilization. Following centrifugation to remove solid particles, small samples were withdrawn after consecutive time intervals and the ITZA concentration was determined by HPLC as described.
compound,measurement,setting,value
"CCC(C)n1ncn(-c2ccc(N3CCN(c4ccc(OCC5COC(Cn6cncn6)(c6ccc(Cl)cc6Cl)O5)cc4)CC3)cc2)c1=O (stereo not drawn) [ITZA, itraconazole]",Stability (% remaining),"[1]; 2 mg/mL, normal saline as final dilution solution, at least 24 hours at RT",more than 90%
same,stability of ITZA,"[1]; H3D/5% dex., day 3",108%
same,stability of ITZA,"[1]; H3D/sal., day 4",102%
same,stability of ITZA,"[1]; H3G/10% dex., day 1",102%
same,Stability (%),"[1]; parent solvent H3, approximately 4 mg/mL, room temperature, 48 hrs",96%
same,Stability (%),"[1]; parent solvent H3, approximately 4 mg/mL, room temperature, 7 days (1 w)",91%
same,Stability (%),"[1]; parent solvent H3, approximately 4 mg/mL, room temperature, 9 days",84%
same,Stability (%),"[1]; parent solvent H3, approximately 4 mg/mL, room temperature, 18 days",80%
same,Stability (%),"[1]; solvent H3, approximately 4 mg/mL, 40° C., 72 hr",76%
same,Stability (%),"[1]; solvent H3, approximately 4 mg/mL, 40° C., 10 days",59%
same,Stability (%),"[1]; solvent H3, approximately 4 mg/mL, 40° C., 11 days",58%
same,Stability (%),"[1]; solvent H3, approximately 4 mg/mL, 40° C., time 0",100%
same,Stability (%),"[1]; solvent H3/normal saline (1:1), approximately 2.0 mg/mL, RT, 6 hrs",101%
same,MIC,"[2]; Aspergillus fumigatus, 48 h, read-out: MIC",0.6 µg/mL
same,MIC,[2],0.3 µg/mL
same,solubility,"[3]; 2M citric acid, aqueous buffer, thermodynamic from solid, in 2M citric acid, read-out: Maximum solubility",3220 µg/mL
same,solubility,"[3]; 6N HCl, aqueous buffer, thermodynamic from solid, in 6N HCl, read-out: Maximum solubility",7410 µg/mL
same,solubility,"[3]; 25% acetic acid, aqueous with cosolvent or surfactant or cyclodextrin, thermodynamic from solid, in 25% Acetic acid, read-out: Maximum solubility",300 µg/mL
same,solubility,"[3]; 50% acetic acid, aqueous with cosolvent or surfactant or cyclodextrin, thermodynamic from solid, in 50% Acetic acid, read-out: Maximum solubility",12900 µg/mL
same,solubility,"[3]; Intralipid, oil or lipid, thermodynamic from solid, in Intralipid, read-out: Maximum solubility",150 µg/mL
same,solubility,"[3]; PEG 200, organic solvent or mixture, thermodynamic from solid, in PEG 200, read-out: Maximum solubility",1450 µg/mL
same,solubility,"[3]; PEG 300, organic solvent or mixture, thermodynamic from solid, in PEG 300, read-out: Maximum solubility",1810 µg/mL
same,solubility,"[3]; PEG 400, organic solvent or mixture, thermodynamic from solid, in PEG 400, read-out: Maximum solubility",2510 µg/mL
same,solubility,"[3]; acetic acid, organic solvent or mixture, thermodynamic from solid, in Acetic acid, read-out: Maximum solubility",144000 µg/mL
same,solubility,"[3]; benzyl alcohol, organic solvent or mixture, thermodynamic from solid, in Benzyl alcohol, read-out: Maximum solubility",> 128000 µg/mL
same,Solubility (in words),"[3]; diluted acetic acid, H2O, Normal saline, 5% Dextrose, Polyoxyethylated castor oil, Propylene glycol, 2 M citric acid, Ethanol, HCl, PEG400, Intralipid",insignificant solubility
same,solubility,"[3]; ethanol, organic solvent or mixture, thermodynamic from solid, in Ethanol, read-out: Maximum solubility",410 µg/mL
same,Maximum solubility,[3]; in 10% Acetic acid,860 µg/mL
same,Maximum solubility,[3]; in Polyoxyethylated castor oil,890 µg/mL
same,solubility,"[3]; normal saline, saline or isotonic, thermodynamic from solid, in Normal saline, read-out: Maximum solubility",480 µg/mL
same,solubility,"[3]; organic solvent or mixture, thermodynamic from solid, benzyl alcohol containing solvent H3, room temp, read-out: Maximum solubility",~31400 µg/mL
same,solubility thermodynamic at 1 h,"[3]; organic solvent or mixture, thermodynamic from solid, Benzyl alcohol",> 100000 µg/mL
same,solubility thermodynamic at 1 h,"[3]; organic solvent or mixture, thermodynamic from solid, pure (glacial) acetic acid",> 100000 µg/mL
same,solubility,"[3]; propylene glycol, organic solvent or mixture, thermodynamic from solid, in Propylene glycol, read-out: Maximum solubility",140 µg/mL
same,solubility,"[3]; solvent B (with Tween 80), aqueous with cosolvent or surfactant or cyclodextrin, thermodynamic from solid, solvent B (with Tween 80), read-out: Maximum solubility",29000 µg/mL
same,solubility at 30 min,"[3]; solvent H3D (no benzyl alcohol), organic solvent or mixture, thermodynamic from solid, solvent H3D (no benzyl alcohol), single determination, read-out: Azole solubility, [Drug] mg/mL",19.1 mg/mL
same,solubility at 30 min,"[3]; solvent H3D (no benzyl alcohol), organic solvent or mixture, thermodynamic from solid, solvent H3D (no benzyl alcohol), read-out: Azole solubility, Average mg/mL",19 mg/mL
same,"Azole solubility, [Drug] mg/mL","[3]; solvent H3D (no benzyl alcohol), single determination",18.9 mg/mL
same,solubility at 30 min,"[3]; solvent H3G (no benzyl alcohol), organic solvent or mixture, thermodynamic from solid, solvent H3G (no benzyl alcohol), single determination, read-out: Azole solubility, [Drug] mg/mL",19.2 mg/mL
same,solubility at 30 min,"[3]; solvent H3G (no benzyl alcohol), organic solvent or mixture, thermodynamic from solid, solvent H3G (no benzyl alcohol), read-out: Azole solubility, Average mg/mL",19.3 mg/mL
same,"Azole solubility, [Drug] mg/mL","[3]; solvent H3G (no benzyl alcohol), single determination",19.4 mg/mL
same,solubility,"[3]; solvent J1, organic solvent or mixture, thermodynamic from solid, solvent J1, read-out: Solubility",18100 µg/mL
same,solubility,[3]; solvent J2,15990 µg/mL
same,solubility,[3]; solvent J3,10110 µg/mL
same,solubility,"[3]; solvent J4, organic solvent or mixture, thermodynamic from solid, solvent J4, read-out: Solubility",6090 µg/mL
same,solubility,"[3]; solvent J5, organic solvent or mixture, thermodynamic from solid, solvent J5, read-out: Solubility",3540 µg/mL
same,solubility,"[3]; solvent K, organic solvent or mixture, thermodynamic from solid, solvent K, RT, read-out: Maximum solubility",11100 µg/mL
same,Maximum solubility,[3]; solvent L,5000 µg/mL
